Counter-ions that a name gives are not always drawn.
Biological target: T1, Human M4 (Homo sapiens, UniProt P08173)
T1 sequence (P08173 1-479): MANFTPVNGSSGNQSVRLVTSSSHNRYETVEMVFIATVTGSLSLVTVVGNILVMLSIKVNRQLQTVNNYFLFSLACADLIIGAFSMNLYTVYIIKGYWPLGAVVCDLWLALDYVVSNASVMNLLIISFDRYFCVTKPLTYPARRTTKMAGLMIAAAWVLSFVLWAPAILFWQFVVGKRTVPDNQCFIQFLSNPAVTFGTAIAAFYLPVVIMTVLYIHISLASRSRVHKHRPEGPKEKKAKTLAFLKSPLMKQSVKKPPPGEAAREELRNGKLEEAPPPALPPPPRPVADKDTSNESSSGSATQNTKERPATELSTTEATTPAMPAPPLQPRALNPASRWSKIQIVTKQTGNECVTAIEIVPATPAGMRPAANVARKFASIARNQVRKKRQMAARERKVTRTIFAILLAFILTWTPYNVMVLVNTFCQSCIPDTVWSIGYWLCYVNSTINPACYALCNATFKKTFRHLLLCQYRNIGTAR
Experiment: mAChR M4 cell-based functional assay (calcium flux, potentiation of EC20 acetylcholine response)
Parameters: Emax: dose or concentration left out as unconfirmed

Cc1cc(C)c2c(n1)sc1c(NC3CCC3)nccc12 [Compound 3, N-cyclobutyl-2,4-dimethylthieno[2,3-b:5,4-c′]dipyridin-8-amine dihydrochloride]
EC50: 84.9 nM | Emax: 89.8%

COc1ccc(CNc2nccc3c2sc2nnc(C)c(C)c23)cc1F [Compound 14, N-[(3-fluoro-4-methoxy-phenyl)methyl]-3,4-dimethylpyrido[4′,3′:4,5]thieno[2,3-c]pyridazin-8-amine hydrochloride]
EC50: 14.3 nM | Emax: 91.3%

Cc1nnc2sc3c(NCc4ccc(C(F)(F)F)c(F)c4)nccc3c2c1C [Compound 17, N-[[3-fluoro-4-(trifluoromethyl)phenyl]methyl]-3,4-dimethyl-pyrido[4′,3′:4,5]thieno[2,3-c]pyridazin-8-amine hydrochloride]
EC50: 1720 nM | Emax: 66.6%

Cc1nnc2sc3c(NC4CC4)nccc3c2c1C [Compound 8, N-cyclopropyl-3,4-dimethyl-pyrido[4′,3′:4,5]thieno[2,3-c]pyridazin-8-amine hydrochloride]
EC50: 12.1 nM | Emax: 74.8%

Cc1cc(C)c2c(n1)sc1c(NC3CCCC3)nccc12 [Compound 1, N-cyclopentyl-2,4-dimethylthieno[2,3-b: 5,4-c]dipyridin-8-amine]
EC50: 124 nM | Emax: 67%

Cc1cc(C)c2c(n1)sc1c(NC3CN(c4ncc(C(F)(F)F)cn4)C3)nccc12 [Compound 24, 2,4-dimethyl-N-(1-(5-(trifluoromethyl)pyrimidin-2-yl)azetidin-3-yl)thieno[2,3-b:5,4-c′]dipyridin-8-amine]
EC50: 150 nM | Emax: 80.1%

Cc1nnc2sc3c(NCc4ccc(F)c(F)c4)nccc3c2c1C [Compound 16, N-[(3,4-difluorophenyl)methyl]-3,4-dimethyl-pyrido[4′,3′:4,5]thieno[2,3-c]pyridazin-8-amine hydrochloride]
EC50: 194 nM | Emax: 81.5%

Cc1nnc2sc3c(NCc4ccc(C(C)(C)O)cc4F)nccc3c2c1C [Compound 21, 2-[4-[[(3,4-dimethylpyrido[4′,3′:4,5]thieno[2,3-c]pyridazin-8-yl)amino]methyl]-3-fluoro-phenyl]propan-2-ol]
EC50: 78.9 nM | Emax: 80%

Cc1c(Cl)nnc2sc3c(NC4CCC4)nccc3c12 [Compound 34, 3-chloro-N-cyclobutyl-4-methylpyrido[4′,3′:4,5]thieno[2,3-c]pyridazin-8-amine]
EC50: 23.6 nM | Emax: 91.4%

Cc1cc(C)c2c(n1)sc1c(NCc3ccc(C(C)(C)O)cc3F)nccc12 [Compound 27, 2-(4-(((2,4-dimethylthieno[2,3-b:5,4-c′]dipyridin-8-yl)amino)methyl)-3-fluorophenyl)propan-2-ol]
EC50: 1100 nM | Emax: 102%

COc1nnc2sc3c(NC4CCC4)nccc3c2c1C [Compound 39, N-cyclobutyl-3-methoxy-4-methylpyrido[4′,3′:4,5]thieno[2,3-c]pyridazin-8-amine]
EC50: 23.4 nM | Emax: 93.2%

Cc1nnc2sc3c(N4CCCC4)nccc3c2c1C [Compound 6, 3,4-dimethyl-8-pyrrolidin-1-yl-pyrido[4′,3′:4,5]thieno[2,3-c]pyridazine hydrochloride]
EC50: 23.6 nM | Emax: 73%

Cc1nnc2sc3c(NC4CCC4)nccc3c2c1C [Compound 7, N-cyclobutyl-3,4-dimethyl-pyrido[4′,3′:4,5]thieno[2,3-c]pyridazin-8-amine hydrochloride]
EC50: 59.8 nM | Emax: 80.2%

COc1nnc2sc3c(NC4CN(c5ncc(C(F)(F)F)cn5)C4)nccc3c2c1C [Compound 38, 3-methoxy-4-methyl-N-(1-(5-(trifluoromethyl)pyrimidin-2-yl)azetidin-3-yl)pyrido[4′,3′:4,5]thieno[2,3-c]pyridazin-8-amine]
EC50: 280 nM | Emax: 80.6%

Cc1nc2sc3c(N4CCCC4)nccc3c2c(C)c1Cl [Compound 30, 3-chloro-2,4-dimethyl-8-(pyrrolidin-1-yl)thieno[2,3-b:5,4-c′]dipyridine]
EC50: 714 nM | Emax: 79.5%

Cc1c(C(F)F)nnc2sc3c(N4CC5(COC5)C4)nccc3c12 [Compound 41, 6-(3-(difluoromethyl)-4-methylpyrido[4′,3′:4,5]thieno[2,3-c]pyridazin-8-yl)-2-oxa-6-azaspiro[3.3]heptane]
EC50: 1880 nM | Emax: 54.8%

Cc1nc2sc3c(NCc4ccc(C(C)(C)O)cc4)nccc3c2c(C)c1Cl [Compound 29, 2-(4-(((3-chloro-2,4-dimethylthieno[2,3-b:5,4-c′]dipyridin-8-yl)amino)methyl)phenyl)propan-2-ol]
EC50: 1540 nM | Emax: 72.9%

Cc1nnc2sc3c(N4CCCC4)ncc(Cl)c3c2c1C [Compound 23, 5-Chloro-3,4-dimethyl-8-pyrrolidin-1-yl-pyrido[4′,3′:4,5]thieno[2,3-c]pyridazine Hydrochloride]
EC50: 351 nM | Emax: 36.5%

Cc1nnc2sc3c(NCc4ccc(OC(F)(F)F)cc4)nccc3c2c1C [Compound 11, 3,4-dimethyl-N-[[4-(trifluoromethoxy)phenyl]methyl] pyrido[4′,3′:4,5]thieno[2,3-c]pyridazin-8-amine hydrochloride]
EC50: 1030 nM | Emax: 72.8%

Cc1nnc2sc3c(NC4CCCC4)nccc3c2c1C [Compound 5, N-Cyclopentyl-3,4-dimethyl-pyrido[4′,3′:4,5]thieno[2,3-c]pyridazin-8-amine Hydrochloride]
EC50: 12.3 nM | Emax: 80.3%

COc1ccc(CNc2nccc3c2sc2nnc(Cl)c(C)c23)cc1F [Compound 36, 3-chloro-N-(3-fluoro-4-methoxybenzyl)-4-methylpyrido[4′,3′:4,5]thieno[2,3-c]pyridazin-8-amine]
EC50: 185 nM | Emax: 97.6%

Cc1c(C(F)F)nnc2sc3c(N4CC(c5ccncc5)C4)nccc3c12 [Compound 42, 3-(difluoromethyl)-4-methyl-8-(3-(pyridin-4-yl)azetidin-1-yl)pyrido[4′3′:4,5]thieno[2,3-c]pyridazine]
EC50: 442 nM | Emax: 56.1%

Cc1cc(C)c2c(n1)sc1c(NCc3ccc(C(C)(C)O)cc3)nccc12 [Compound 26, 2-(4-(((2,4-dimethylthieno[2,3-b:5,4-c′]dipyridin-8-yl)amino)methyl)phenyl)propan-2-ol]
EC50: 327 nM | Emax: 101%

Cc1nnc2sc3c(NCc4ccc(C(=O)N5CCOCC5)cc4)nccc3c2c1C [Compound 13, [4-[[(3,4-dimethylpyrido[4′,3′:4,5]thieno[2,3-c]pyridazin-8-yl)amino]methyl]phenyl]-morpholino-methanone]
EC50: 66 nM | Emax: 81.9%

Cc1nnc2sc3c(NC4CN(c5ccc(C#N)cn5)C4)nccc3c2c1C [Compound 22, 6-[3-[(3,4-dimethylpyrido[4′,3′:4,5]thieno[2,3-c]pyridazin-8-yl)amino]azetidin-1-yl]pyridine-3-carbonitrile]
EC50: 16.9 nM | Emax: 117%

Cc1nnc2sc3c(NC4CN(c5ccc(F)c(F)c5)C4)nccc3c2c1C [Compound 19, N-[1-(3,4-difluorophenyl)azetidin-3-yl]-3,4-dimethyl-pyrido[4′,3′:4,5]thieno[2,3-c]pyridazin-8-amine hydrochloride]
EC50: 164 nM | Emax: 74.2%

Cc1c(C(F)F)nnc2sc3c(N4CCCC4)nccc3c12 [Compound 40, 3-(Difluoromethyl)-4-methyl-8-(pyrrolidin-1-yl)pyrido[4′,3′:4,5]thieno[2,3-c]pyridazine]
EC50: 374 nM | Emax: 55.9%

Cc1nnc2sc3c(NCc4ccc(OCC5CC5)c(F)c4)nccc3c2c1C [Compound 18, N-[[4-(cyclopropylmethoxy)-3-fluoro-phenyl]methyl]-3,4-dimethyl-pyrido[4′,3′:4,5]thieno[2,3-c]pyridazin-8-amine hydrochloride]
EC50: 679 nM | Emax: 88.6%

Cc1nc2sc3c(NCc4ccc(C(C)(C)O)c(F)c4)nccc3c2c(C)c1Cl [Compound 31, 2-(4-(((3-chloro-2,4-dimethylthieno[2,3-b:5,4-c′]dipyridin-8-yl)amino)methyl)-2-fluorophenyl)propan-2-ol]
EC50: 2630 nM | Emax: 76.6%

COc1ccc(CNc2nccc3c2sc2nnc(OC)c(C)c23)cc1 [Compound 37, 3-Methoxy-N-(4-methoxybenzyl)-4-methylpyrido[4′,3′:4,5]thieno[2,3-c]pyridazin-8-amine]
EC50: 562 nM | Emax: 76.4%

Cc1c(Cl)nnc2sc3c(N4CCCC4)nccc3c12 [Compound 35, 3-chloro-4-methyl-8-(pyrrolidin-1-yl)pyrido[4′,3′:4,5]thieno[2,3-c]pyridazine]
EC50: 25.4 nM | Emax: 101%

Cc1nnc2sc3c(NCc4ccc(C(C)(C)O)c(F)c4)nccc3c2c1C [Compound 20, 2-[4-[[(3,4-dimethylpyrido[4′,3′:4,5]thieno[2,3-c]pyridazin-8-yl)amino]methyl]-2-fluoro-phenyl]propan-2-ol]
EC50: 39.6 nM | Emax: 85.6%

Cc1nnc2sc3c(NC4CN(c5ncc(F)cn5)C4)nccc3c2c1C [Compound 12, N-[1-(5-fluoropyrimidin-2-yl)azetidin-3-yl]-3,4-dimethyl-pyrido[4′,3′:4,5]thieno[2,3-c]pyridazin-8-amine hydrochloride]
EC50: 18.2 nM | Emax: 77.4%
